The values below come from the supplement of paper PMC10307832.

What all share (assay): relative viability (nuclei count vs DMSO), 5 days (fraction); higher = more cells survive
Compound in one test: C1CN(CCC1C(C2=CC3=C(C=C2)OCO3)(C4=CC5=C(C=C4)OCO5)O)C(=O)OC6=CC=C(C=C6)[N+](=O)[O-] [JZL-184]
Put shortly: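 Only plates meeting two conditions passed: control CV below 25% and at least one doubling. Lung cancer cell lines, kept overnight at 37 °C in 1536-well plates, were pinned with five library-drug doses (not always all listed) √10 apart on vehicle-anchored plates and grown 5 days without medium change. A one-step fix, permeabilisation and Hoechst stain preceded 4× imaging and MetaXpress nuclear counting. Viability equals treated-well nuclei divided by vehicle-well nuclei, as the median over plates.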

Compound in the test “JZL-184 + Lapatinib”: C1CN(CCC1C(C2=CC3=C(C=C2)OCO3)(C4=CC5=C(C=C4)OCO5)O)C(=O)OC6=CC=C(C=C6)[N+](=O)[O-] [JZL-184] + CS(=O)(=O)CCNCc1ccc(-c2ccc3ncnc(Nc4ccc(OCc5cccc(F)c5)c(Cl)c4)c3c2)o1 [Lapatinib] (partner 2 µM)
Put shortly:
(§1)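 Lung cancer cell lines in 1536-well plates were dosed by pin tool the day after seeding, either with one drug alone or with a fixed anchor-drug dose plus five library-drug doses (not always all listed) in √10 steps. After 5 days, cells were fixed and their nuclei stained in one step (final 0.05% Triton X-100, 1% formaldehyde, 1 ug/ml Hoechst), then counted on 4× images. Relative viability is the nuclei count in treated wells divided by that in vehicle wells. Values are medians of duplicate plates.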

Compound in the test “JZL-184 + AZD7762”: C1CN(CCC1C(C2=CC3=C(C=C2)OCO3)(C4=CC5=C(C=C4)OCO5)O)C(=O)OC6=CC=C(C=C6)[N+](=O)[O-] [JZL-184] + NC(=O)Nc1cc(-c2cccc(F)c2)sc1C(=O)N[C@H]1CCCNC1 [AZD7762] (partner 0.2 µM)
Put shortly:
as §1

Compound in the test “JZL-184 + Vorinostat”: C1CN(CCC1C(C2=CC3=C(C=C2)OCO3)(C4=CC5=C(C=C4)OCO5)O)C(=O)OC6=CC=C(C=C6)[N+](=O)[O-] [JZL-184] + O=C(CCCCCCC(=O)Nc1ccccc1)NO [Vorinostat] (partner 1 µM)
In outline: as §1

Compound in the test “JZL-184 + Trametinib”: C1CN(CCC1C(C2=CC3=C(C=C2)OCO3)(C4=CC5=C(C=C4)OCO5)O)C(=O)OC6=CC=C(C=C6)[N+](=O)[O-] [JZL-184] + CC(=O)Nc1cccc(-n2c(=O)n(C3CC3)c(=O)c3c(Nc4ccc(I)cc4F)n(C)c(=O)c(C)c32)c1 [Trametinib] (partner 0.02 µM)
Put shortly: as §1

On to ABC-1, for which the relative viability with JZL-184 (0.04 µM) was 0.868; in the test with JZL-184 (0.4 µM) it was 0.901; with JZL-184 (1.265 µM) it was 1.09; with JZL-184 (4 µM), 1.15; in the test with JZL-184 + Lapatinib (first compound 0.04 µM), 1.09; with JZL-184 + Lapatinib (first compound 0.4 µM), 0.947. In addition, the relative viability with JZL-184 + Lapatinib (first compound 1.265 µM) is 1.07; in the test with JZL-184 + Lapatinib (first compound 4 µM) it was 1.19; with JZL-184 + AZD7762 (first compound 1.265 µM), 0.715; in the test with JZL-184 + AZD7762 (first compound 4 µM), 0.968; with JZL-184 + Vorinostat (first compound 0.04 µM), 1.59; in the test with JZL-184 + Vorinostat (first compound 0.4 µM), 0.961. Also, the relative viability with JZL-184 + Vorinostat (first compound 1.265 µM) is 1.42; with JZL-184 + Vorinostat (first compound 4 µM) it was 0.929.

As for NCI-H1703, the relative viability stood at 1.2 with JZL-184 (0.04 µM); 0.997 with JZL-184 (0.4 µM); 0.996 in the test with JZL-184 (1.265 µM); 0.768 in the test with JZL-184 (4 µM); 1.44 in the test with JZL-184 + Lapatinib (first compound 0.04 µM); 0.936 in the test with JZL-184 + Lapatinib (first compound 0.4 µM). For the same cell line, the relative viability turned out to be 1.4 with JZL-184 + Lapatinib (first compound 1.265 µM); 0.983 in the test with JZL-184 + Lapatinib (first compound 4 µM); 0.106 with JZL-184 + AZD7762 (first compound 0.04 µM); 0.117 in the test with JZL-184 + AZD7762 (first compound 0.4 µM); 0.129 with JZL-184 + AZD7762 (first compound 1.265 µM); 0.112 with JZL-184 + AZD7762 (first compound 4 µM).

On to COR-L 105, for which the relative viability in the test with JZL-184 (0.04 µM) was determined as 1.13; in the test with JZL-184 (0.4 µM), 0.876; in the test with JZL-184 (1.265 µM) it was 1.1; in the test with JZL-184 (4 µM) it was 0.812; in the test with JZL-184 + Trametinib (first compound 0.04 µM), 0.454; with JZL-184 + Trametinib (first compound 0.4 µM), 0.443. In addition, the relative viability in the test with JZL-184 + Trametinib (first compound 1.265 µM) is 0.439; with JZL-184 + Trametinib (first compound 4 µM), 0.414; with JZL-184 + Lapatinib (first compound 0.04 µM), 0.349; with JZL-184 + Lapatinib (first compound 0.4 µM), 0.352; in the test with JZL-184 + Lapatinib (first compound 1.265 µM), 0.394; in the test with JZL-184 + Lapatinib (first compound 4 µM) it was 0.327. The relative viability with JZL-184 + Vorinostat (first compound 0.04 µM) was determined as 0.789; with JZL-184 + Vorinostat (first compound 0.4 µM) it was 0.8; in the test with JZL-184 + Vorinostat (first compound 1.265 µM), 0.905; in the test with JZL-184 + Vorinostat (first compound 4 µM) it was 0.82.

Consider NCI-H661, for which the relative viability with JZL-184 (0.04 µM) amounted to 1.02; in the test with JZL-184 (0.4 µM), 0.919; with JZL-184 (1.265 µM), 0.943; with JZL-184 (4 µM) it was 0.999; with JZL-184 + Trametinib (first compound 0.04 µM), 0.606; with JZL-184 + Trametinib (first compound 0.4 µM) it was 0.531. Further, the relative viability with JZL-184 + Trametinib (first compound 1.265 µM) came out at 0.548; with JZL-184 + Trametinib (first compound 4 µM) it was 0.586; with JZL-184 + Lapatinib (first compound 0.04 µM), 0.505; in the test with JZL-184 + Lapatinib (first compound 0.4 µM), 0.481; with JZL-184 + Lapatinib (first compound 1.265 µM), 0.637; with JZL-184 + Lapatinib (first compound 4 µM) it was 0.382. Further, the relative viability amounted to 0.865 in the test with JZL-184 + Vorinostat (first compound 0.04 µM), 0.714 with JZL-184 + Vorinostat (first compound 0.4 µM), 0.975 in the test with JZL-184 + Vorinostat (first compound 1.265 µM) and 0.772 with JZL-184 + Vorinostat (first compound 4 µM).

For the cell line NCI-H1650, the relative viability with JZL-184 (0.04 µM) turned out to be 1.07; with JZL-184 (0.4 µM) it was 0.895; with JZL-184 (1.265 µM) it was 1.16; with JZL-184 (4 µM), 0.915; with JZL-184 + Trametinib (first compound 0.04 µM) it was 0.778; with JZL-184 + Trametinib (first compound 0.4 µM), 0.403. Also, the relative viability stood at 0.801 in the test with JZL-184 + Trametinib (first compound 1.265 µM); 0.657 with JZL-184 + Trametinib (first compound 4 µM); 0.821 with JZL-184 + Lapatinib (first compound 0.04 µM); 0.735 in the test with JZL-184 + Lapatinib (first compound 0.4 µM); 0.939 with JZL-184 + Lapatinib (first compound 1.265 µM); 0.718 with JZL-184 + Lapatinib (first compound 4 µM). Further, the relative viability with JZL-184 + Vorinostat (first compound 0.04 µM) turned out to be 0.715; in the test with JZL-184 + Vorinostat (first compound 0.4 µM), 0.541; with JZL-184 + Vorinostat (first compound 1.265 µM) it was 0.604; in the test with JZL-184 + Vorinostat (first compound 4 µM), 0.561.

Consider SW 1573, for which the relative viability worked out at 1.15 with JZL-184 (0.04 µM); 0.926 in the test with JZL-184 (0.4 µM); 1.08 with JZL-184 (1.265 µM); 1.02 with JZL-184 (4 µM); 0.602 in the test with JZL-184 + Trametinib (first compound 0.04 µM); 0.564 with JZL-184 + Trametinib (first compound 0.4 µM). Moreover, the relative viability with JZL-184 + Trametinib (first compound 1.265 µM) worked out at 0.589; with JZL-184 + Trametinib (first compound 4 µM), 0.445; in the test with JZL-184 + Lapatinib (first compound 0.04 µM) it was 1.25; in the test with JZL-184 + Lapatinib (first compound 0.4 µM), 1.15; in the test with JZL-184 + Lapatinib (first compound 1.265 µM), 1.25; with JZL-184 + Lapatinib (first compound 4 µM), 1.01. In addition, the relative viability with JZL-184 + Vorinostat (first compound 0.04 µM) was 0.824; with JZL-184 + Vorinostat (first compound 0.4 µM), 0.64; in the test with JZL-184 + Vorinostat (first compound 1.265 µM), 0.788; with JZL-184 + Vorinostat (first compound 4 µM), 0.551.

Take UMC-11: the relative viability with JZL-184 (0.04 µM) is 1.12; with JZL-184 (0.4 µM), 0.951; with JZL-184 (1.265 µM), 1.08; in the test with JZL-184 (4 µM) it was 0.976; in the test with JZL-184 + Trametinib (first compound 0.04 µM) it was 0.891; with JZL-184 + Trametinib (first compound 0.4 µM) it was 0.679. Besides, the relative viability was determined as 0.736 with JZL-184 + Trametinib (first compound 1.265 µM); 0.646 in the test with JZL-184 + Trametinib (first compound 4 µM); 1.26 in the test with JZL-184 + Lapatinib (first compound 0.04 µM); 0.898 in the test with JZL-184 + Lapatinib (first compound 0.4 µM); 1.05 with JZL-184 + Lapatinib (first compound 1.265 µM); 0.947 with JZL-184 + Lapatinib (first compound 4 µM). For the same cell line, the relative viability with JZL-184 + Vorinostat (first compound 0.04 µM) worked out at 0.405; with JZL-184 + Vorinostat (first compound 0.4 µM), 0.415; with JZL-184 + Vorinostat (first compound 1.265 µM), 0.381; with JZL-184 + Vorinostat (first compound 4 µM), 0.304.

Take LCLC-103H: the relative viability with JZL-184 (0.04 µM) worked out at 0.956; in the test with JZL-184 (0.4 µM), 0.988; with JZL-184 (1.265 µM), 1.04; with JZL-184 (4 µM) it was 0.986; with JZL-184 + Trametinib (first compound 0.04 µM) it was 0.644; with JZL-184 + Trametinib (first compound 0.4 µM), 0.664. For the same cell line, the relative viability with JZL-184 + Trametinib (first compound 1.265 µM) amounted to 0.691; with JZL-184 + Trametinib (first compound 4 µM) it was 0.674; with JZL-184 + AZD7762 (first compound 0.04 µM), 0.791; in the test with JZL-184 + AZD7762 (first compound 0.4 µM) it was 0.764; in the test with JZL-184 + AZD7762 (first compound 1.265 µM) it was 0.833; in the test with JZL-184 + AZD7762 (first compound 4 µM), 0.754. Moreover, the relative viability came to 0.72 in the test with JZL-184 + Vorinostat (first compound 0.04 µM), 0.752 with JZL-184 + Vorinostat (first compound 0.4 µM), 0.768 in the test with JZL-184 + Vorinostat (first compound 1.265 µM) and 0.734 with JZL-184 + Vorinostat (first compound 4 µM).

Regarding NCI-H2342, the relative viability came out at 0.851 in the test with JZL-184 (0.04 µM); 0.878 with JZL-184 (0.4 µM); 1.03 in the test with JZL-184 (1.265 µM); 1.02 with JZL-184 (4 µM); 0.837 in the test with JZL-184 + Trametinib (first compound 0.04 µM); 0.785 in the test with JZL-184 + Trametinib (first compound 0.4 µM). Moreover, the relative viability came out at 0.972 with JZL-184 + Trametinib (first compound 1.265 µM); 0.756 in the test with JZL-184 + Trametinib (first compound 4 µM); 0.556 in the test with JZL-184 + AZD7762 (first compound 0.04 µM); 0.39 with JZL-184 + AZD7762 (first compound 0.4 µM); 0.563 in the test with JZL-184 + AZD7762 (first compound 1.265 µM); 0.6 with JZL-184 + AZD7762 (first compound 4 µM). For the same cell line, the relative viability with JZL-184 + Vorinostat (first compound 0.04 µM) amounted to 0.809; with JZL-184 + Vorinostat (first compound 0.4 µM) it was 0.676; in the test with JZL-184 + Vorinostat (first compound 1.265 µM) it was 0.719; with JZL-184 + Vorinostat (first compound 4 µM) it was 0.813.
